According to PubChem BioAssay (NCI):
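Interpolation was linear, between the two tested concentrations surrounding the appropriate level; five concentrations were tested over 48 hours in 96-well plates. Abbreviation: GI50, concentration required for 50% inhibition of growth. TGI: concentration producing complete growth inhibition.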

Columns and labels:
Experiment in all cases: growth of human tumour cells (NCI), 48 h; in the data active means GI50 below about 0.43 µM; inactive means the rest
SNB-75 CNS = test system: SNB-75 CNS
HCC-2998 colon = test system: HCC-2998 colon
SR leukemia = test system: SR leukemia
HL-60(TB) leukemia = test system: HL-60(TB) leukemia
SK-OV-3 ovarian = test system: SK-OV-3 ovarian
RPMI-8226 leukemia = test system: RPMI-8226 leukemia
A498 renal = test system: A498 renal
UACC-62 melanoma = test system: UACC-62 melanoma
EKVX NSCLC = test system: EKVX NSCLC
HCT-116 colon = test system: HCT-116 colon
MOLT-4 leukemia = test system: MOLT-4 leukemia
UACC-257 melanoma = test system: UACC-257 melanoma
SW-620 colon = test system: SW-620 colon
MDA-MB-231 breast = test system: MDA-MB-231 breast
HOP-92 NSCLC = test system: HOP-92 NSCLC
TK-10 renal = test system: TK-10 renal
LOX IMVI melanoma = test system: LOX IMVI melanoma
NCI-H23 lung = test system: NCI-H23 lung
OVCAR-5 ovarian = test system: OVCAR-5 ovarian
MCF7 breast = test system: MCF7 breast
SNB-19 CNS = test system: SNB-19 CNS
HOP-62 NSCLC = test system: HOP-62 NSCLC
COLO 205 colon = test system: COLO 205 colon
CCRF-CEM leukemia = test system: CCRF-CEM leukemia
HT29 colon = test system: HT29 colon
OVCAR-8 ovarian = test system: OVCAR-8 ovarian
SK-MEL-28 melanoma = test system: SK-MEL-28 melanoma
ACHN renal = test system: ACHN renal
NCI/ADR-RES ovarian = test system: NCI/ADR-RES ovarian
M14 melanoma = test system: M14 melanoma
SK-MEL-5 melanoma = test system: SK-MEL-5 melanoma
OVCAR-3 ovarian = test system: OVCAR-3 ovarian
HS 578T breast = test system: HS 578T breast
A549 NSCLC = test system: A549 NSCLC
SN12C renal = test system: SN12C renal
RXF 393 renal = test system: RXF 393 renal
SK-MEL-2 melanoma = test system: SK-MEL-2 melanoma
OVCAR-4 ovarian = test system: OVCAR-4 ovarian
786-0 renal = test system: 786-0 renal
KM12 colon = test system: KM12 colon
IGROV1 ovarian = test system: IGROV1 ovarian
BT-549 breast = test system: BT-549 breast
U251 CNS = test system: U251 CNS
MALME-3M melanoma = test system: MALME-3M melanoma
NCI-H460 lung = test system: NCI-H460 lung
NCI-H226 lung = test system: NCI-H226 lung
SF-268 CNS = test system: SF-268 CNS
UO-31 renal = test system: UO-31 renal
NCI-H522 lung = test system: NCI-H522 lung
SF-539 CNS = test system: SF-539 CNS
DU-145 prostate = test system: DU-145 prostate
K-562 leukemia = test system: K-562 leukemia
HCT-15 colon = test system: HCT-15 colon
PC-3 prostate = test system: PC-3 prostate
SF-295 CNS = test system: SF-295 CNS
MDA-MB-435 = test system: MDA-MB-435
T-47D breast = test system: T-47D breast
CAKI-1 renal = test system: CAKI-1 renal

COc1ccc(/C=C(/C(=O)N2CCN(c3ccccc3)CC2)c2cc(OC)c(OC)c(OC)c2)cc1N
2430 nM: TGI (COLO 205 colon)
10900 nM: TGI (SK-MEL-5 melanoma)
778 nM: TGI (A498 renal)
active: GI50 (SNB-75 CNS) 220 nM | GI50 (SR leukemia) 409 nM | GI50 (HL-60(TB) leukemia) 241 nM | GI50 (RPMI-8226 leukemia) 327 nM | GI50 (A498 renal) 142 nM | GI50 (UACC-62 melanoma) 272 nM | GI50 (HCT-116 colon) 356 nM | GI50 (SW-620 colon) 401 nM | GI50 (MDA-MB-231 breast) 411 nM | GI50 (MCF7 breast) 326 nM | GI50 (COLO 205 colon) 362 nM | GI50 (CCRF-CEM leukemia) 301 nM | GI50 (HT29 colon) 366 nM | GI50 (OVCAR-8 ovarian) 375 nM | GI50 (M14 melanoma) 254 nM | GI50 (SK-MEL-5 melanoma) 386 nM | GI50 (OVCAR-3 ovarian) 366 nM | GI50 (HS 578T breast) 357 nM | GI50 (RXF 393 renal) 272 nM | GI50 (KM12 colon) 423 nM | GI50 (U251 CNS) 361 nM | GI50 (NCI-H460 lung) 364 nM | GI50 (NCI-H522 lung) 242 nM | GI50 (SF-539 CNS) 223 nM | GI50 (K-562 leukemia) 316 nM | GI50 (HCT-15 colon) 388 nM | GI50 (PC-3 prostate) 414 nM | GI50 (SF-295 CNS) 342 nM | GI50 (MDA-MB-435) 138 nM
596 nM: TGI (HL-60(TB) leukemia)
419 nM: TGI (MDA-MB-435)
> 100000 nM: TGI (SNB-75 CNS) | TGI (HCC-2998 colon) | TGI (SR leukemia) | TGI (SK-OV-3 ovarian) | TGI (UACC-62 melanoma) | TGI (EKVX NSCLC) | TGI (HCT-116 colon) | TGI (MOLT-4 leukemia) | TGI (UACC-257 melanoma) | TGI (SW-620 colon) | TGI (HOP-92 NSCLC) | TGI (TK-10 renal) | TGI (LOX IMVI melanoma) | TGI (NCI-H23 lung) | TGI (OVCAR-5 ovarian) | TGI (MCF7 breast) | TGI (SNB-19 CNS) | TGI (HOP-62 NSCLC) | TGI (CCRF-CEM leukemia) | TGI (OVCAR-8 ovarian) | TGI (SK-MEL-28 melanoma) | TGI (ACHN renal) | TGI (NCI/ADR-RES ovarian) | TGI (OVCAR-3 ovarian) | TGI (HS 578T breast) | TGI (A549 NSCLC) | TGI (SN12C renal) | TGI (RXF 393 renal) | TGI (SK-MEL-2 melanoma) | TGI (OVCAR-4 ovarian) | TGI (786-0 renal) | TGI (KM12 colon) | TGI (IGROV1 ovarian) | TGI (BT-549 breast) | TGI (U251 CNS) | TGI (MALME-3M melanoma) | TGI (NCI-H460 lung) | TGI (NCI-H226 lung) | TGI (SF-268 CNS) | TGI (UO-31 renal) | TGI (DU-145 prostate) | TGI (K-562 leukemia) | TGI (HCT-15 colon) | TGI (PC-3 prostate) | TGI (SF-295 CNS)
13300 nM: TGI (HT29 colon)
12000 nM: TGI (RPMI-8226 leukemia)
24400 nM: TGI (MDA-MB-231 breast)
3580 nM: TGI (M14 melanoma)
797 nM: TGI (SF-539 CNS)
910 nM: TGI (NCI-H522 lung)
inactive: GI50 (HCC-2998 colon) 556 nM | GI50 (SK-OV-3 ovarian) 472 nM | GI50 (EKVX NSCLC) 561 nM | GI50 (MOLT-4 leukemia) 524 nM | GI50 (UACC-257 melanoma) 3650 nM | GI50 (HOP-92 NSCLC) 3530 nM | GI50 (TK-10 renal) 72100 nM | GI50 (LOX IMVI melanoma) 696 nM | GI50 (NCI-H23 lung) 2180 nM | GI50 (OVCAR-5 ovarian) 569 nM | GI50 (SNB-19 CNS) 444 nM | GI50 (HOP-62 NSCLC) 429 nM | GI50 (SK-MEL-28 melanoma) 1470 nM | GI50 (ACHN renal) 612 nM | GI50 (NCI/ADR-RES ovarian) 623 nM | GI50 (A549 NSCLC) 680 nM | GI50 (SN12C renal) 643 nM | GI50 (SK-MEL-2 melanoma) 725 nM | GI50 (OVCAR-4 ovarian) 3050 nM | GI50 (786-0 renal) 766 nM | GI50 (IGROV1 ovarian) 697 nM | GI50 (BT-549 breast) 530 nM | GI50 (MALME-3M melanoma) 12200 nM | GI50 (NCI-H226 lung) 3200 nM | GI50 (SF-268 CNS) 711 nM | GI50 (UO-31 renal) 812 nM | GI50 (DU-145 prostate) 531 nM

O=C1c2[nH]cc(CNC3CN4CCC3CC4)c2C(=O)c2c1c(O)c1ccccc1c2O (stereo not drawn)
12100 nM: TGI (K-562 leukemia)
39200 nM: TGI (T-47D breast)
7210 nM: TGI (DU-145 prostate)
55700 nM: TGI (OVCAR-4 ovarian)
2430 nM: TGI (HOP-62 NSCLC)
7140 nM: TGI (MALME-3M melanoma)
3840 nM: TGI (IGROV1 ovarian)
inactive: GI50 (SNB-75 CNS) 16200 nM | GI50 (SK-OV-3 ovarian) 3710 nM | GI50 (RPMI-8226 leukemia) 1460 nM | GI50 (UACC-62 melanoma) 14900 nM | GI50 (EKVX NSCLC) 16100 nM | GI50 (UACC-257 melanoma) 31700 nM | GI50 (MDA-MB-231 breast) 1410 nM | GI50 (HOP-92 NSCLC) 1100 nM | GI50 (LOX IMVI melanoma) 1050 nM | GI50 (OVCAR-5 ovarian) 2010 nM | GI50 (SNB-19 CNS) 2920 nM | GI50 (HOP-62 NSCLC) 1110 nM | GI50 (COLO 205 colon) 2050 nM | GI50 (HT29 colon) 12500 nM | GI50 (OVCAR-8 ovarian) 17600 nM | GI50 (SK-MEL-28 melanoma) 13000 nM | GI50 (ACHN renal) 2600 nM | GI50 (NCI/ADR-RES ovarian) 2080 nM | GI50 (M14 melanoma) 3110 nM | GI50 (SK-MEL-5 melanoma) 11900 nM | GI50 (OVCAR-3 ovarian) 1010 nM | GI50 (HS 578T breast) 26600 nM | GI50 (A549 NSCLC) 6310 nM | GI50 (SN12C renal) 1060 nM | GI50 (RXF 393 renal) 5280 nM | GI50 (SK-MEL-2 melanoma) 4020 nM | GI50 (OVCAR-4 ovarian) 16300 nM | GI50 (786-0 renal) 2530 nM | GI50 (KM12 colon) 672 nM | GI50 (IGROV1 ovarian) 1330 nM | GI50 (BT-549 breast) 21600 nM | GI50 (U251 CNS) 1210 nM | GI50 (MALME-3M melanoma) 2780 nM | GI50 (NCI-H226 lung) 16300 nM | GI50 (SF-268 CNS) 12600 nM | GI50 (UO-31 renal) 3660 nM | GI50 (SF-539 CNS) 1940 nM | GI50 (DU-145 prostate) 714 nM | GI50 (T-47D breast) 19000 nM | GI50 (HCT-15 colon) 3620 nM | GI50 (PC-3 prostate) 1210 nM | GI50 (CAKI-1 renal) 612 nM | GI50 (SF-295 CNS) 2050 nM | GI50 (MDA-MB-435) 1400 nM
2760 nM: TGI (MDA-MB-435)
1190 nM: TGI (TK-10 renal)
2310 nM: TGI (LOX IMVI melanoma)
721 nM: TGI (HCC-2998 colon)
21400 nM: TGI (UO-31 renal)
41400 nM: TGI (NCI-H226 lung)
15500 nM: TGI (SN12C renal)
33100 nM: TGI (EKVX NSCLC)
8550 nM: TGI (HCT-15 colon)
37600 nM: TGI (UACC-62 melanoma)
68400 nM: TGI (SF-268 CNS)
9560 nM: TGI (COLO 205 colon)
20100 nM: TGI (SK-OV-3 ovarian)
77500 nM: TGI (HS 578T breast)
8650 nM: TGI (786-0 renal)
active: GI50 (HCC-2998 colon) 187 nM | GI50 (HCT-116 colon) 370 nM | GI50 (SW-620 colon) 117 nM | GI50 (TK-10 renal) 266 nM | GI50 (CCRF-CEM leukemia) 141 nM | GI50 (K-562 leukemia) 238 nM
399 nM: TGI (SW-620 colon)
3090 nM: TGI (MDA-MB-231 breast)
1720 nM: TGI (A498 renal) | TGI (MOLT-4 leukemia)
2650 nM: TGI (HCT-116 colon)
1560 nM: TGI (CCRF-CEM leukemia)
38300 nM: TGI (HT29 colon)
2580 nM: TGI (U251 CNS)
47400 nM: TGI (A549 NSCLC)
11700 nM: TGI (M14 melanoma)
18600 nM: TGI (SK-MEL-2 melanoma)
12400 nM: TGI (SNB-19 CNS)
47100 nM: TGI (BT-549 breast)
3780 nM: TGI (OVCAR-5 ovarian)
3410 nM: TGI (PC-3 prostate)
6400 nM: TGI (NCI/ADR-RES ovarian)
> 100000 nM: TGI (OVCAR-8 ovarian)
3620 nM: TGI (SF-295 CNS)
2050 nM: TGI (CAKI-1 renal)
2220 nM: TGI (OVCAR-3 ovarian)
> 76300 nM: TGI (UACC-257 melanoma)
31500 nM: TGI (SK-MEL-5 melanoma)
2320 nM: TGI (KM12 colon)
3610 nM: TGI (SF-539 CNS)
4150 nM: TGI (RPMI-8226 leukemia)
8040 nM: TGI (ACHN renal)
84300 nM: TGI (RXF 393 renal)
34200 nM: TGI (SK-MEL-28 melanoma)
44600 nM: TGI (SNB-75 CNS)
